Results from the supplement of paper PMC10307832.

What was measured:
Assay in all cases: relative viability (nuclei count vs DMSO), 5 days (fraction); higher = more cells survive
[1] = compound: C1=CC2=C(C=C(C(=C2N=C1)O)N=NC3=CC4=C(C=C3)C=C(C=C4)S(=O)(=O)O)S(=O)(=O)O + Cc1cc(Nc2cc(N3CCN(C)CC3)nc(Sc3ccc(NC(=O)C4CC4)cc3)n2)n[nH]1 [Tozasertib] (partner 0.1 µM)
In short: (§1)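 The day after seeding in 1536-well plates, lung cancer cell lines were treated by pin tool with a single drug, or with a fixed anchor-drug dose together with five library-drug doses (not always all listed) in √10 steps. After 5 days, a combined fix-and-stain solution (final 0.05% Triton X-100, 1% formaldehyde, 1 ug/ml Hoechst) was added. Nuclei counted on 4× images gave relative viability as treated counts over vehicle counts, reported as the median of duplicate plates.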

AT-7519 + Palbociclib = compound: O=C(NC1CCNCC1)c1n[nH]cc1NC(=O)c1c(Cl)cccc1Cl [AT-7519] + CC(=O)c1c(C)c2cnc(Nc3ccc(N4CCNCC4)cn3)nc2n(C2CCCC2)c1=O [Palbociclib] (partner 0.5 µM)
In short: as §1

AT-7519 + Navitoclax = compound: O=C(NC1CCNCC1)c1n[nH]cc1NC(=O)c1c(Cl)cccc1Cl [AT-7519] + CC1(C)CCC(c2ccc(Cl)cc2)=C(CN2CCN(c3ccc(C(=O)NS(=O)(=O)c4ccc(N[C@H](CCN5CCOCC5)CSc5ccccc5)c(S(=O)(=O)C(F)(F)F)c4)cc3)CC2)C1 [Navitoclax] (partner 0.5 µM)
In short: as §1

AT-7519 + Linsitinib = compound: O=C(NC1CCNCC1)c1n[nH]cc1NC(=O)c1c(Cl)cccc1Cl [AT-7519] + C[C@]1(O)C[C@@H](c2nc(-c3ccc4ccc(-c5ccccc5)nc4c3)c3c(N)nccn32)C1 [Linsitinib] (partner 1 µM)
In short: as §1

Cell Line | relative viability ([1]; first compound 0.08 µM) | relative viability ([1]; first compound 0.253 µM) | relative viability ([1]; first compound 0.8 µM) | relative viability ([1]; first compound 2.53 µM) | relative viability ([1]; first compound 8 µM) | relative viability (AT-7519 + Palbociclib; first compound 0.01 µM) | relative viability (AT-7519 + Palbociclib; first compound 0.03162 µM) | relative viability (AT-7519 + Palbociclib; first compound 0.3162 µM) | relative viability (AT-7519 + Palbociclib; first compound 1 µM) | relative viability (AT-7519 + Navitoclax; first compound 0.01 µM) | relative viability (AT-7519 + Navitoclax; first compound 0.03162 µM) | relative viability (AT-7519 + Navitoclax; first compound 0.3162 µM) | relative viability (AT-7519 + Navitoclax; first compound 1 µM) | relative viability (AT-7519 + Linsitinib; first compound 0.01 µM) | relative viability (AT-7519 + Linsitinib; first compound 0.03162 µM) | relative viability (AT-7519 + Linsitinib; first compound 0.3162 µM) | relative viability (AT-7519 + Linsitinib; first compound 1 µM)
HCC-15 | 0.462 | 0.458 | 0.422 | 0.441 | 0.45 | 0.779 | 0.717 | 0.618 | 0.537 | 0.632 | 0.639 | 0.647 | 0.351 | 0.961 | 0.879 | 0.724 | 0.43
NCI-H441 | 0.636 | 0.685 | 0.644 | 0.712 | 0.605 | 0.202 | 0.195 | 0.141 | 0.163 | 0.592 | 0.628 | 0.571 | 0.412 | 0.553 | 0.482 | 0.487 | 0.395
EPLC-272H | 0.351 | 0.365 | 0.203 | 0.273 | 0.325 | 0.346 | 0.324 | 0.302 | 0.307 | 1.13 | 1.01 | 1.31 | 0.972 | 0.999 | 1.1 | 0.945 | 1.18
